Measurements: patent publication US5100914A, “Arylalkoxycoumarins” (BASF Aktiengesellschaft, priority 1988, dated 1992)

Key:
[1] = molecular target: T1, MAO A (Rattus norvegicus, UniProt P21396); assay: determination of monoaminooxidase A inhibition in dilute rat brain homogenate; type: biochemical; settings: 14C-phenylethylamine or 14C-tryptamine 0.4 μmol/l, 20 min, 37° C., logit-log regression, read-out: IC50 MAO A (mean inhibitory concentration)
T1 construct: carried out in dilute rat brain homogenate; from tissue; host or cells: rat brain homogenate
T1 sequence (P21396 1-526): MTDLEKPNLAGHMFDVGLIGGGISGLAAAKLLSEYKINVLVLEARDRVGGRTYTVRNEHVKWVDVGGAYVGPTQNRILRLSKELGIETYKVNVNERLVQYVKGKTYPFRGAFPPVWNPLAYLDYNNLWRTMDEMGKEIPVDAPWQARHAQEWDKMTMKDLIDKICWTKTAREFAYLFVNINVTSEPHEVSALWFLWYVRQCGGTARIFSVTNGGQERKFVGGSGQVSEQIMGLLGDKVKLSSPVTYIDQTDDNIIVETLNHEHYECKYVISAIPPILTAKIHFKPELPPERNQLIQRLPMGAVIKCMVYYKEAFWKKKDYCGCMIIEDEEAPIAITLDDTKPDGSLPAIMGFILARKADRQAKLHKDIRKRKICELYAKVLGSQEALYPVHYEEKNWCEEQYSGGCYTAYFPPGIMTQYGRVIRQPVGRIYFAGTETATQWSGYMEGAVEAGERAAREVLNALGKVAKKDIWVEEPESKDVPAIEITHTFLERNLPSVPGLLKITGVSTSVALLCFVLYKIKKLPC
Experimental: (§1) The MAO-inhibiting activity of the novel compounds can be determined using standard methods. […] This mixture was incubated for 20 minutes at 37° C. […] The blank value was determined in similar mixtures with an incubation time of t =0 min.
(§2) From the inhibitory values determined at the various inhibitor concentrations against the controls, the mean inhibitory concentration (IC50) was calculated by linear regression following logit-log transformation.

[2] = molecular target: T2, MAO B (Rattus norvegicus, UniProt P19643); assay: determination of monoaminooxidase B inhibition in dilute rat brain homogenate; type: biochemical; settings: 20 min; for IC50: 14C-phenylethylamine or 14C-tryptamine 0.4 μmol/l, 37° C., logit-log regression, read-out: IC50 MAO B (mean inhibitory concentration); for MAO B selectivity (IC50 MAO A / IC50 MAO B): selectivity ratio from the two IC50 values
T2 construct: carried out in dilute rat brain homogenate; from tissue; host or cells: rat brain homogenate
T2 sequence (P19643 1-520): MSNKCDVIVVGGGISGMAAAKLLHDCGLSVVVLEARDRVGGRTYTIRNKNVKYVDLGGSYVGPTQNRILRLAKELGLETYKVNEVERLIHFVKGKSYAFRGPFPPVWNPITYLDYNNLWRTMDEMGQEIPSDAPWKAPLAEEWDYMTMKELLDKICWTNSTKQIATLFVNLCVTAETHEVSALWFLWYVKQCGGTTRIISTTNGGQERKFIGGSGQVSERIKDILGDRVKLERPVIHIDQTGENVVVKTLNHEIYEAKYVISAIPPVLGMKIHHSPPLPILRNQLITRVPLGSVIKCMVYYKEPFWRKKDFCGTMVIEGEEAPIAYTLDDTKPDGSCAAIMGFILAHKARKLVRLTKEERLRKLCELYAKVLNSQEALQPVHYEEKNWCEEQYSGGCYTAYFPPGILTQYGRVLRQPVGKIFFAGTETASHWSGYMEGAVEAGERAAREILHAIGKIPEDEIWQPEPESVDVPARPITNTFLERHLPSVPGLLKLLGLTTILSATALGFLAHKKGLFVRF
Experimental: as §1, §2

[3] = J. Agric. Food Chem. 34 (2), 185-188; cited from earlier work

Compound | IC50 [1] [nM] | IC50 [2] [nM] | MAO B selectivity (IC50 MAO A / IC50 MAO B) [2] | fungicidal activity [3]
Cc1ccc(C)c(COc2ccc3c(C)c(C)c(=O)oc3c2)c1 [Example 10, 3,4-Dimethyl-7-(2,5-dimethylphenyl)-methoxycoumarin] | > 10000 | 3.7 | > 2700 | –
CCc1cc2c(C)c(C)c(=O)oc2cc1OCCc1ccccc1 [Example 23, 6-Ethyl-3,4-dimethyl-7-(2-phenyl)-ethoxycoumarin] | > 10000 | 13 | > 770 | –
Cc1c(C)c2ccc(OCc3ccc4ccccc4c3)cc2oc1=O [Example 4, 3,4-Dimethyl-7-(2-naphthyl)-methoxycoumarin] | > 10000 | 11 | > 900 | –
Cc1cc(=O)oc2cc(OCc3c(F)c(F)c(F)c(F)c3F)ccc12 [7-pentafluorophenylmethoxy-4-methylcoumarin] | – | – | – | has fungicidal activity
Cc1c(C)c2ccc(OCCCc3ccccc3)cc2oc1=O [Example 35, 3,4-Dimethyl-7-(3-phenylpropoxy)-coumarin] | 1200 | 4.2 | 280 | –

Continued, in another order:

IC50 [1] [nM] | IC50 [2] [nM] | MAO B selectivity (IC50 MAO A / IC50 MAO B) [2] | Compound | fungicidal activity [3]
> 10000 | 2.8 | > 3600 | Cc1cc2ccc(OCc3ccc(C(C)C)cc3)cc2oc1=O [Example 28, 3-Methyl-7-(4-isopropylphenyl)-methoxycoumarin] | –
> 10000 | 1.8 | > 5600 | CC(C)c1ccc(COc2ccc3ccc(=O)oc3c2)cc1 [Example 26, 7-(4-Isopropylphenyl)-methoxycoumarin] | –
> 10000 | 4.7 | > 2100 | Cc1cc(=O)oc2cc(OCc3ccc(C(C)C)cc3)ccc12 [Example 27, 4-Methyl-7-(4-isopropylphenyl)-methoxycoumarin] | –
> 10000 | 4.3 | > 2400 | Cc1c(Cl)c(=O)oc2cc(OCc3ccc(C(C)C)cc3)ccc12 [Example 33, 3-Chloro-4-methyl-7-(4-isopropylphenyl)-methoxycoumarin] | –
> 10000 | 31 | > 320 | Cc1c(C)c2cc(Cl)c(OCc3ccc(C(C)C)cc3)cc2oc1=O [Example 38, 6-Chloro-3,4-dimethyl-7-(4-isopropylphenyl)-methoxycoumarin] | –
